Where a name gives a salt, the structure may show the parent alone.
System: IRE1-XBP1s (HEK293 T-REx cells stably expressing the XBP1-RLuc splicing reporter)
Assay: IRE1-XBP1s activation Assay (XBP1-RLuc splicing reporter, luminescence relative to thapsigargin, with or without IRE1 inhibitor 4μ8C)
Assay type: cell-based
Conditions: 18 h, compound 10 μM, luminescence as percentage signal relative to thapsigargin (Tg) (500 nM, 18 h)
Procedure: IRE1-XBP1s activation Assay: HEK293 T-REx cells stably expressing the XBP1-RLuc splicing reporter were treated with an IRE1-XBP1s activator provided herein (10 μM) in the presence or absence of the IRE1 active site inhibitor 4μ8C (32 μM) for 18 h. Luminescence was shown as the percentage signal relative to thapsigargin (Tg) (500 nM, 18 h).

| Compound | activation at 10 µM [%] |
| --- | --- |
| O=C(Nc1cnn(CC(=O)N2CCC[C@H](Oc3ccc(C(F)(F)F)cn3)C2)c1)[C@@H]1COc2ccccc2O1 [Compound 189] | < 30 |
| Cc1ccc(OC2CCC23CN(C(=O)Cn2cc(NC(=O)C4CNc5ccccc5O4)cn2)C3)cc1 (stereo not shown) [Compound 193] | < 30 |
| Cc1ccc(OC2CCCC23CN(C(=O)Cn2cc(NC(=O)C4COc5ccccc5O4)cn2)C3)cc1 (stereo not shown) [Compound 199] | < 30 |
| Cc1ccc(O[C@H]2CCCN(C(=O)Cn3cc(NC(=O)CCNc4ccnc(F)n4)cn3)C2)cc1 [Compound 178] | ≥ 50 |
| Cc1ccc(O[C@H]2CCCN(C(=O)Cn3cc(NC(=O)COc4cccnc4)cn3)C2)cc1 [Compound 149] | < 30 |
| O=C(Cn1cc(NC(=O)[C@H]2C[C@H](Oc3ccccc3)C2)cn1)N1CCC[C@H](Oc2ccc(C(F)(F)F)cn2)C1 [Compound 109] | < 30 |
| CN(CCOc1ccc(C(F)(F)F)cn1)C(=O)Cn1cc(NC(=O)C2CNc3ccccc3O2)cn1 (stereo not shown) [Compound 191] | < 30 |
| Cc1ccc(OCCN(C)C(=O)Cn2cc(NC(=O)C3Oc4cccc(C(C)C)c4O3)cn2)cc1 (stereo not shown) [Compound 124] | < 30 |
| Cc1ccc(OC2CCCN(C(=O)Cn3cc(NC(=O)CCOc4ccccc4C(F)(F)F)cn3)C2)cc1 (stereo not shown) [Compound 83] | < 30 |
| Cc1ccc(OCCN(C)C(=O)Cn2cc(NC(=O)c3cccc(Oc4ccccc4)c3)cn2)cc1 [Compound 2] | < 30 |
| Cc1ccc(OCCN(C)C(=O)Cn2cc(NC(=O)C3CC(Oc4cccc(C)n4)C3)cn2)cc1 (stereo not shown) [Compound 142] | < 30 |
| Cc1ccc(OCCN(C)C(=O)Cn2cc(NC(=O)[C@H]3CCc4ccccc4O3)cn2)cc1 [Compound 202] | 30 to 50 |
| Cc1ccccc1OCCC(=O)Nc1cnn(CC(=O)N(C)c2ccc(Oc3ccccc3)cc2)c1 [Compound 34] | < 30 |
| Cc1ccc(OC2CCCN(C(=O)Cn3cc(NC(=O)CCOc4ccc(Cl)cc4)cn3)C2)cc1 (stereo not shown) [Compound 38] | 30 to 50 |
| Cc1ccc(OCCN(C)C(=O)Cn2cc(NC(=O)C3CCCN(c4ccccc4)C3)cn2)cc1 (stereo not shown) [Compound 61] | < 30 |
| Cc1c(F)cc(O[C@H]2CCCN(C(=O)Cn3cc(NC(=O)CCNc4ccnc(F)n4)cn3)C2)cc1F [Compound 180] | ≥ 50 |
| O=C(CCOc1ccccc1)Nc1cnn(CC(=O)N2CCCC(Oc3ccc(C(F)(F)F)cc3)C2)c1 (stereo not shown) [Compound 4, N-(1-(2-oxo-2-(3-(4-(trifluoromethyl)phenoxy)piperidin-1-yl)ethyl)-1H-pyrazol-4-yl)-3-phenoxypropanamide hydrochloride] | 30 to 50 |
| Cc1ccc(OC2CC3(C2)CN(C(=O)Cn2cc(NC(=O)CCNc4ccnc(F)n4)cn2)C3)cc1 [Compound 181] | < 30 |
| Cc1ccc(Oc2ccc(N(C)C(=O)Cn3cc(NC(=O)CCOc4ccccc4)cn3)cc2)cc1 [Compound 118] | < 30 |
| Cc1ccccc1OCCC(=O)Nc1cnn(CC(=O)N2CCCCC(Oc3ccccc3)C2)c1 (stereo not shown) [Compound 49] | < 30 |
| Cc1ccc(OC2CCCN(C(=O)Cn3cc(NC(=O)CCOc4cncc(C(F)(F)F)c4)cn3)C2)cc1 (stereo not shown) [Compound 89] | < 30 |
| Cc1ccc(O[C@H]2CCCN(C(=O)Cn3cc(NC(=O)C4COc5ccccc5O4)cn3)C2)cc1 (stereo partly shown) [Compound 147] | < 30 |
| COc1ncc(Cl)cc1NCCC(=O)Nc1cnn(CC(=O)N2CCC[C@@H](Oc3ccc(C)cc3)C2)c1 [Compound 158] | < 30 |

| Compound | activation at 10 µM [%] |
| --- | --- |
| [2H]C([2H])([2H])c1ccc(OCCN(C)C(=O)Cn2cc(NC(=O)C3COc4ccccc4O3)cn2)cc1 (stereo not shown) [Compound 200] | ≥ 50 |
| O=C(CCOc1ccccc1)Nc1cnn(CC(=O)Nc2ccc(C3CCCCC3)cc2)c1 [Compound 31] | < 30 |
| Cc1ccc(OCCN(C)C(=O)Cn2cc(NC(=O)[C@@H]3CCC[C@H](Oc4ccccc4)C3)cn2)cc1 [Compound 12] | < 30 |
| Cc1ccc(O[C@H]2CCCN(C(=O)Cn3cc(NC(=O)C4COc5ccccc5N4)cn3)C2)cc1 (stereo partly shown) [Compound 155] | < 30 |
| Cc1ccc(OCCN(C)C(=O)Cn2cc(NC(=O)[C@H]3CC[C@@H](Oc4ccccc4)CC3)cn2)cc1 [Compound 1, (cis)-N-(1-(2-(methyl(2-(p-tolyloxy)ethyl)amino)-2-oxoethyl)-1H-pyrazol-4-yl)-4-phenoxycyclohexanecarboxamide] | < 30 |
| Cc1ccc(O[C@@H]2CCCN(C(=O)Cn3cc(NC(=O)CCOc4ccccc4F)cn3)C2)cc1 [Compound 72] | ≥ 50 |
| O=C(CCOc1ccccc1)Nc1cnn(CC(=O)Nc2ccc(-n3cncn3)cc2)c1 [Compound 30] | < 30 |
| CC(C)c1cncc(F)c1OCCC(=O)Nc1cnn(CC(=O)N2CCC[C@H](Oc3ccc(C(F)(F)F)cn3)C2)c1 [Compound 161] | ≥ 50 |
| Cc1ccc(OCCN(C)C(=O)Cn2cc(NC(=O)C3CC(Oc4ccncc4)C3)cn2)cc1 (stereo not shown) [Compound 139, N-(1-(2-(methyl (2-(p-tolyloxy)ethyl)amino)-2-oxoethyl)-1H-pyrazol-4-yl)-3-(pyridin-4-yloxy)cyclobutane-1-carboxamide] | ≥ 50 |
| Cc1ccc(OCCN(C)C(=O)Cn2cc(NC(=O)COC3CCCN(c4nccc(F)n4)C3)cn2)cc1 (stereo not shown) [Compound 132] | < 30 |
| Cc1ccc(O[C@H]2CCCN(C(=O)Cn3cc(NC(=O)CCOc4ccc(F)cc4C)cn3)C2)cc1 [Compound 94] | 30 to 50 |
| Cc1ccc(O[C@H]2CCCN(C(=O)Cn3cc(NC(=O)C4CNc5ccccc5O4)cn3)C2)cc1 (stereo partly shown) [Compound 120] | < 30 |
| CC(C)c1cncc(F)c1OCCC(=O)Nc1cnn(CC(=O)N2CCC[C@H](Oc3ccc(OC(F)(F)F)cn3)C2)c1 [Compound 160] | 30 to 50 |
| Cc1ccc(OCCN(C)C(=O)Cn2cc(N(C)C(=O)[C@@H]3CCCC[C@@H]3c3ccccc3)cn2)cc1 [Compound 19] | < 30 |
| O=C(CCNc1ccnc(F)n1)Nc1cnn(CC(=O)N2CCC[C@H](Oc3ccc(C(F)F)cc3)C2)c1 [Compound 179] | ≥ 50 |
| COc1ccc(OCCC(=O)Nc2cnn(CC(=O)N3CCCCC(Oc4ccccc4)C3)c2)cc1 (stereo not shown) [Compound 47] | < 30 |
| Cc1ccc(OCCN(C)C(=O)Cn2cc(NC(=O)[C@@H]3CC[C@@H](Oc4ccccc4)C3)cn2)cc1 [Compound 8, (1R,3R)—N-(1-(2-(methyl(2-(p-tolyloxy)ethyl)amino)-2-oxoethyl)-1H-pyrazol-4-yl)-3-phenoxycyclopentanecarboxamide hydrochloride] | < 30 |
| Cc1ccc(OCCN(C)C(=O)Cn2cc(NC(=O)[C@@H]3CCC[C@@H](Oc4ccccc4)C3)cn2)cc1 [Compound 13] | < 30 |
| Cc1ccc(O[C@H]2CCCN(C(=O)Cn3cc(NC(=O)[C@@H]4COc5ccccc5O4)cn3)C2)cc1 [Compound 185] | < 30 |
| Cc1ccc(OCCN(C)C(=O)Cn2cc(NC(=O)C3CN(C(=O)OC(C)(C)C)c4ccccc4O3)cn2)cc1 (stereo not shown) [Compound 73] | < 30 |
| Cc1ccc(OCCN(C)C(=O)Cn2cc(NC(=O)C3COc4ccccc4O3)cn2)cc1 (stereo not shown) [Compound 154] | ≥ 50 |
| Cc1ccc(OC2CCCN(C(=O)Cn3cc(NC(=O)CCOc4cccnc4C(F)(F)F)cn3)C2)cc1 (stereo not shown) [Compound 91] | < 30 |
| COc1ccccc1OCCC(=O)Nc1cnn(CC(=O)N2CCCC(Oc3ccc(C)cc3)C2)c1 (stereo not shown) [Compound 40] | 30 to 50 |

Reference: patent US20260193244A1 (Protego Biopharma, Inc., priority 2022, published 2026)
